What all share (format): in vivo, mouse
Assay [1] relates to C57BL/6J mice. Put plainly: Oral glucose tolerance test 6 h, 48 h, 96 h post dose (GLP-1R/GCGR agonists). Conditions: 48 h after administration. How it is done:
C57BL/6J mice (n=6/group) between 10-12 weeks old were fasted overnight and then administrated with 5 mL/kg of each peptide in PBS (pH=8.2) by s.c. route. After 6 hours, mice were orally or intraperitoneally administrated with 2 g of glucose solution per kg body weight and their tail blood glucose levels were measured before (0 min) and after glucose challenge for 2 hours. Follow up OGTT were also performed at 48 h, and 96 h post-original dose in same mice after overnight fast.
The efficacy of the GLP-1R/GCGR dual agonist 135 was then evaluated in an oral glucose tolerance test (OGTT) in wilt type mice.

A further assay concerns DIO mice (C57BL/6). As to the kind of experiment: DIO mice study, daily s.c. dosing 21 days, plasma and liver analyses (28-week old). The text has this: All animal care and experimental procedures were approved by the Institutional Animal Care and Use Committee (IACUC) of California Institute for Biomedical Research (Calibr) and strictly followed the NIH guidelines for humane treatment of animals. The results are expressed as means S.E., and the data were compared using the unpaired Student's t test. Where appropriate, data were compared using repeated measures or one-way analysis of variance, followed by the Student-Newman-Keuls post hoc test. Incremental area under the curve (AUC) analyses for plasma glucose was calculated using GraphPad Prism 6.
DIO mice (C57BL/6, male, 28-week old) were randomized based on their body weight and were treated with daily subcutaneous injections of peptide or vehicle (n=7/group). Body weight and food intake were monitored daily throughout the study. At the end of the experiment, mice were sacrificed, and visceral fat mass were weighed. Collected plasma was used for cholesterol level determination according to the manufacturer's guide (cholesterol assay kit, Abcam, Cambridge, England) and triglyceride level using a triglyceride colorimetric assay kit (Cayman chemical, Ann Arbor, Michigan).
Collected plasma was used for cholesterol level determination according to the manufacturer's guide (cholesterol assay kit, Abcam, Cambridge, England). Briefly, plasma was diluted using cholesterol assay buffer and then reacted with the same volume of reaction mix containing cholesterol assay buffer, cholesterol probe, enzyme mix and cholesterol esterase. After incubation at 37° C. for 1 hour, the absorbance at 560 nm was measured using an Envision multilabel plate reader (PerkinElmer, Waltham, MA). Subsequently, the concentration of cholesterol in plasma was calculated according to a standard curve.
Collected plasma was used for triglyceride level determination using a triglyceride colorimetric assay kit (Cayman chemical, Ann Arbor, Michigan). 5 μL of plasma samples or standard were plated into a 384 well plate and followed by adding 75 μL of diluted enzyme buffer to each well. The mixture was incubated at room temperature for 15 min, and the absorbance was read at 560 nm using an Envision plate reader (PerkinElmer, Waltham, MA). The concentration of triglyceride in plasma was calculated using a standard curve.
Terminal serum analytes including total cholesterol, triglyceride, alanine aminotransferase (ALT), aspartate aminotransferase (AST), alkaline phosphatase (ALP) were determined by Alfa Wassermann Vet Axcel® clinical analyzer. Hepatic triglycerides were measured in liver homogenates generated with a colorimetric triglyceride kit (Cayman Chemical). Paraformaldehyde-fixed liver were paraffin-embedded, sectioned and stained with hematoxylin-eosin and Picro-Sirius red by HistoTox Labs (Boulder, CO). All histological assessment (steatosis, fibrosis scoring) were performed by a certified histopathologist blind to treatment (HistoTox Labs) based on classification outlined by Kleiner et al.^3

Assay [2] has as its system C57BL/6J mice. Put plainly: Oral glucose tolerance test 2 h, 72 h, 96 h, […] post dose (GLP-1R/GIPR agonists). The protocol: C57BL/6J mice (n=6/group) between 10-12 weeks old were fasted overnight and then administrated with 5 mL/kg of each peptide in PBS (pH=8.2) by s.c. route. […]

Data on two molecules can be found in patent US12583900B2, “Peptide conjugates and methods of use” (The Scripps Research Institute, priority 2019, dated 2026).

With `CCCCCCCCCCCCCCCC(=O)N[C@@H](CCC(=O)NCCCC[C@H](NC(=O)[C@H](CC(=O)O)NC(=O)[C@H](CO)NC(=O)[C@@H](NC(=O)[C@H](Cc1ccccc1)NC(=O)[C@@H](NC(=O)CNC(=O)[C@H](CCC(N)=O)NC(=O)[C@H](CO)NC(=O)[C@@H](N)Cc1c[nH]cn1)[C@@H](C)O)[C@@H](C)O)C(=O)N[C@@H](CO)C(=O)N[C@@H](CCC(=O)O)C(=O)N[C@@H](Cc1ccc(O)cc1)C(=O)N[C@@H](CC(C)C)C(=O)N[C@@H](CC(=O)O)C(=O)N[C@@H](CO)C(=O)N[C@@H](CCC(=O)O)C(=O)N[C@@H](CCCNC(=N)N)C(=O)N[C@@H](C)C(=O)N[C@@H](CCCNC(=N)N)C(=O)N[C@@H](CC(=O)O)C(=O)N[C@@H](Cc1ccccc1)C(=O)N[C@H](C(=O)N[C@@H](C)C(=O)N[C@@H](Cc1c[nH]c2ccccc12)C(=O)N[C@@H](CC(C)C)C(=O)N[C@@H](CCC(=O)O)C(=O)N[C@@H](C)C(=O)NCC(=O)NCC(=O)O)C(C)C)C(=O)O` [cotadutide], in the assay on C57BL/6J mice [1], the “glucose handling in OGTT” value was “did not exhibit any improvement over the vehicle”. In addition, the “plasma glucose excursions in a fasted state” value with DIO mice (C57BL/6) (day 21) was “significant decrease”. In the assay on DIO mice (C57BL/6) (vs vehicle), the “liver to bodyweight ratio” value is reported as “significantly decreased”, the liver triglyceride level entry was “significantly decreased” and the liver weight entry was “significantly decreased”.

In the case of semaglutide, in the assay with DIO mice (C57BL/6) (DIO mice, daily s.c.), the “food consumption over 20 days vs vehicle” value is “reduction”; the “total bodyweight and percent change from initial bodyweight over 21 days” value was “decrease”. The “plasma glucose excursions in a fed state” value in the assay on DIO mice (C57BL/6) (day 20) was “significant decrease”. In addition, in the assay with DIO mice (C57BL/6) (day 21), the “OGTT glucose levels over time and AUC” value is recorded as “significant decrease”; the “plasma glucose excursions in a fasted state” value was “significant decrease”. Moreover, in the assay on DIO mice (C57BL/6) (terminal, vs vehicle), the “plasma level of ALP” value is recorded as “significantly reduced”, the “plasma level of ALT” value is reported as “significantly reduced”, the “plasma level of cholesterol” value is “significantly reduced” and the “plasma level of triglycerides” value was “significantly reduced”. Further, in the assay with DIO mice (C57BL/6) (vs vehicle), the fat weight entry is given as “significantly reduced”, the “liver to bodyweight ratio” value is listed as “significantly decreased”, the liver triglyceride level entry is listed as “significantly decreased” and the liver weight result was “significantly decreased”. Besides, in the assay on DIO mice (C57BL/6) (vs vehicle), the steatosis grade entry was “reduced”. Also, the “OGTT blood glucose levels as measured by the AUC vs vehicle” value (“OGTT blood glucose levels … vs vehicle” below) in the assay on C57BL/6J mice [2] (2 hours post dose) is on record as “significant decrease”. The “fasted glucose levels vs vehicle” value in the assay with C57BL/6J mice [2] (2 hours post treatment) was “significant decrease”. The “OGTT blood glucose levels … vs vehicle” value with C57BL/6J mice [2] (72 hours post dose) was “significant decrease”. In addition, in the assay with C57BL/6J mice [2] (72 hours post treatment), the “fasted glucose levels vs vehicle” value is recorded as “significant decrease”. Also, the “OGTT blood glucose levels … vs vehicle” value in the assay on C57BL/6J mice [2] (96 hours post dose) is “significant decrease”. In addition, the “fasted glucose levels vs vehicle” value with C57BL/6J mice [2] (96 hours post treatment) is on record as “significant decrease”. Besides, in the assay with C57BL/6J mice [2] ([…] post dose), the “OGTT blood glucose levels … vs vehicle” value is on record as “significant decrease”. Besides, in the assay with C57BL/6J mice [2] ([…] post treatment), the “fasted glucose levels vs vehicle” value is given as “significant decrease”.
